Source: patent publication US6113907A, “Pharmaceutical grade St. John's Wort” (priority 1997, dated 2000)

Legend:
Nitric oxide synthetase = assay: nitric oxide synthetase binding (NOS), [3H] NOARG, rat brain membranes; conditions: 10^-4; 60 min, 100 µM
Method: The inhibition of MAOA enzymatic activity (MAOA) was determined using rat liver mitochondrial membranes as a partially purified enzyme source. […] The reaction involves the conversion of the substrate to [^14 C] 5-hydroxyl indoleacetaldehyde+NH4^+. In brief, the enzyme is preincubated with the substances and the subtype specific blocker deprenyl (at 300 nM) for 60 minutes at 37° C. in 100 mM KPO4 (pH 7.2). Substrate is added and incubated for an additional 10 minutes. The reaction is terminated by the addition of 0.5 ml of 2M citric acid. […] Nitric oxide synthetase activity was measured using a binding assay (NOS). The receptors were made by partial purification of material from rat brain membranes. The radioligand used was [^3 H] L-N^G -Nitro-Arginine (NOARG) at a final concentration of 5 nM. Non-specific binding was determined using 100 μM of NOARG. The assay reactions were carried out in 50 mM Tris-HCl (pH 7.4) for 60 minutes at 25° C.

stability = assay type: physicochemical; conditions: our data
From the text: Some botanicals, such as St. John's Wort, are both temperature and light sensitive. For this type of botanical the material should be dry packed with a refrigerant or shipped under refrigeration and protected from light and air. […] Stability (in absence of air) was increased to six months in a preparation extracted with ethanol.
Phloroglucinola include hyperforin (prenylated derivative of phloroglucinol), adhyperforin (similar to the bitter principle of hops, adhumulone).

[1] = system: muscarinic receptor for the central nervous system; assay: muscarinic receptor for the central nervous system (M1 Central), [3H] QNB, rat cortical membranes; assay type: binding; conditions: 10^-4; 100 µM
Method: (§1) Fourteen additional bioassays were preformed on either extracts, fractions or reference compounds for this botanical. To measure inhibition of [^3 H] PK11195 to the benzodiazepine receptor (BDZ) a partially purified receptor preparation was made from rat kidney membranes. The final radioactive ligand concentration was 1 nM and non-specific binding was measured using 200 nM cold PK11195. The substances, receptor and ligand were reacted in 50 mM Tris-HCL (pH 7.7) at 0-4° C. for 60 minutes. The reaction was terminated by rapid filtration of the samples through glass fiber filters. […] The inhibition of [^3 H] pinrenzepine to the muscarinic M1 receptor (M1) by the substances was measured using a partially purified receptor from bovine striatal membranes. The final hot ligand concentration was 1 nM and non-specific binding was determined in the presence of 100 nM atropine. […] The reactions were terminated by rapid vacuum filtration of the reaction mixture through glass fiber filters. […] To assay for biological activity for the muscarinic receptor for the central nervous system, receptor was partially purified from rat cortical membranes. […] Non-specific binding was determined in the presence of 100 nM atropine. […] Non-specific binding was determined using 1 mM NMDA. […] Non-specific binding was determined using 100 μM AMPA.

herpes simplex = conditions: cited from earlier work
Sindbis virus = conditions: cited from earlier work
[2] = system: benzodiazepine receptor (BDZ); assay: benzodiazepine receptor (BDZ), [3H] PK11195, rat kidney membranes; assay type: binding; conditions: 10^-4; 60 min, 100 µM
Method: as §1

## Cc1cc(O)c2c(=O)c3c(O)cc(O)c4c5c(O)cc(O)c6c(=O)c7c(O)cc(C)c8c1c2c(c34)c(c78)c65 [Hypericin, hypericin]
Nitric oxide synthetase
  NOS: 48%
stability
  stability in solution: unstable in solution
[1]
  M1 Central: 55%
Herpes simplex
  inhibition of herpes simplex: inhibit
Sindbis virus
  activity against Sindbis virus: Activity has also been reported
[2]
  BDZ: 33%
